The results in this text go back to patent US20070036793A1, “Methods for use of an lkb1/strad7mo25 complex” (priority 2003, published 2007).

One experiment addresses T1, AMPKα1 (Mus musculus, UniProt Q5EG47).
T1 construct: AMPKα1 and AMPK-related kinases were immunoprecipitated from the cell lysates; endogenous in cells; host or cells: immortalised LKB1+/+ MEFs
Nature of the experiment: AMPK activity and Thr172 phosphorylation in LKB1+/+ MEFs after drug stimulation. The following applies: 1 h. Format: cell-based. The protocol: FIG. 27 Activity of AMPK-related kinases in LKB1+/+ and LKB1^−/− MEFs. LKB1^+/+ or LKB1^−/− MEFs were either left untreated (black bars) or stimulated with 10 mM phenformin (Phen, white bars) for 1 h. AMPKα1 and AMPK-related kinases were immunoprecipitated from the cell lysates, and in vitro kinase activity towards the AMARA peptide was measured as described in Materials and Methods (Example 4). To confirm equal expression of the kinases in each sample, cell lysates (AMPKα1, NUAK2, MARK2/3 and MARK4) or immunoprecipitated proteins (QIK, QSK, SIK and MARK1) were subjected to SDS-PAGE and western blot analysis. All AMPK-related kinases migrated with the expected molecular mass. In the case of AMPKα1, cell lysates were immunoblotted with a phospho Thr172 antibody (P-AMPK), that recognises the phosphorylated T-loop. A control immunoblot of LKB1 levels in cell lysates is also included in panel B. Results shown are average + SD of 2-4 assays and are representative of at least two independent experiments.
(§1) FIG. 28. […] (A) LKB1^+/+ MEFs were either left untreated or stimulated with the indicated concentrations of phenformin (Phen) for 1 h. AMPKα1/a2 and LKB1 were immunoprecipitated from the cell lysates, and in vitro kinase activity towards the AMARA and LKBtide peptides respectively, were measured as described in Materials and Methods (Example 4). (B) To confirm equal expression of the kinases in each sample, cell lysates were subjected to SDS-PAGE and western blot analysis with the indicated antibodies. The phospho pT172 antibody (P-AMPK) recognises the phosphorylated T-loop of AMPKα1. Results are shown as the average ± SD for a triplicate assay and are representative of two independent experiments. […] AMPKα1 and the indicated AMPK-related kinases were immunoprecipitated from the cell lysates, and in vitro kinase activity towards the AMARA peptide measured as described in Materials and Methods. […]
Cell culture, stimulation and cell lysis. […] Protein concentrations were determined by the Bradford method with bovine serum albumin as the standard (Bradford, 1976). […]

For another experiment, the target named is T2, LKB1 (Mus musculus, UniProt Q9WTK7).
T2 construct: AMPKα1/a2 and LKB1 were immunoprecipitated from the cell lysates; endogenous in cells; host or cells: LKB1+/+ MEFs
T2 sequence (Q9WTK7 1-433 limits assumed): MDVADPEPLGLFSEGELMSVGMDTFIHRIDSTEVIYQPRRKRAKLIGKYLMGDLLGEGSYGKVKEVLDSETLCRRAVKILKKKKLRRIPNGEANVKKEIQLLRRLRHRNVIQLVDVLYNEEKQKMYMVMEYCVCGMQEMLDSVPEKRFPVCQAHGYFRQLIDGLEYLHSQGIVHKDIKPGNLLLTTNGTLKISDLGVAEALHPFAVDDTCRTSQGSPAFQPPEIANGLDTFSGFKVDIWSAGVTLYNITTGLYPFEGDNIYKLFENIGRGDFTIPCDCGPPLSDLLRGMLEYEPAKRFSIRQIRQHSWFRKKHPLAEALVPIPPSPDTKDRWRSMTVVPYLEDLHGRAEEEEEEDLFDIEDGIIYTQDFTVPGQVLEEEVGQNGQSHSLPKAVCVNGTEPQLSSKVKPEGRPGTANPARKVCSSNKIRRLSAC
T2 sequence (Q3UUJ4 whole entry partner): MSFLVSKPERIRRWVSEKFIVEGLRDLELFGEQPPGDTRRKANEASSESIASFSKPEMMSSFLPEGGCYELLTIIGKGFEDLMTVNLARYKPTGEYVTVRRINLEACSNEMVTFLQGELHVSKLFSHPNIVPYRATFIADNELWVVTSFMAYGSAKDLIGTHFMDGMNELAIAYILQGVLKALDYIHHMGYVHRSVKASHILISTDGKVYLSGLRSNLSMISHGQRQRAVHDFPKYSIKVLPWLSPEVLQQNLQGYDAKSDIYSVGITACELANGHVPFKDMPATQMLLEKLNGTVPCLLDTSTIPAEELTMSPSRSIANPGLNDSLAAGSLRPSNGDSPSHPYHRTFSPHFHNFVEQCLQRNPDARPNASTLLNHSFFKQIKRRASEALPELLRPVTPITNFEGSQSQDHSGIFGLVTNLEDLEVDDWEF
T2 sequence (Q06138 whole entry partner): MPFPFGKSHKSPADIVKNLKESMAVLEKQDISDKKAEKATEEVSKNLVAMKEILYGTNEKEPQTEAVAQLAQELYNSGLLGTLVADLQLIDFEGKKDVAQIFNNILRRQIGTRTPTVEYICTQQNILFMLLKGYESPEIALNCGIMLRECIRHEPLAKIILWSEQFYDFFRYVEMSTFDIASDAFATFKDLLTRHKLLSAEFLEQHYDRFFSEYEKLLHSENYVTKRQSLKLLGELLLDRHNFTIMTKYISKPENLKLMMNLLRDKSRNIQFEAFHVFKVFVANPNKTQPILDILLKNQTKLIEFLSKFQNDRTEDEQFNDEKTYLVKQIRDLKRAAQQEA
Kind of experiment: Activity of endogenous LKB1 immunoprecipitated from LKB1+/+ MEFs, LKBtide substrate. It is filed as cell-based. The following applies: 1 h. The protocol: as §1, with “AMPKα1.” for “AMPKα1. Results are shown as the average ± SD for a triplicate assay and are representative of two independent experiments.”
Cell culture, stimulation and cell lysis. […] Protein concentrations were determined by the Bradford method with bovine serum albumin as the standard (Bradford, 1976).
0.1-1 mg Hela or MEF cell lysate protein was incubated at 4° C. for 1 h on a shaking platform with 5 μl of protein G-Sepharose conjugated to 5 μg of human LKB1 antibody. […] The p81 membranes were washed in phosphoric acid, and the incorporated radioactivity was measured by scintillation counting as described previously for MAP kinase (Alessi et al., 1995).

T1 sequence (Q5EG47 whole entry): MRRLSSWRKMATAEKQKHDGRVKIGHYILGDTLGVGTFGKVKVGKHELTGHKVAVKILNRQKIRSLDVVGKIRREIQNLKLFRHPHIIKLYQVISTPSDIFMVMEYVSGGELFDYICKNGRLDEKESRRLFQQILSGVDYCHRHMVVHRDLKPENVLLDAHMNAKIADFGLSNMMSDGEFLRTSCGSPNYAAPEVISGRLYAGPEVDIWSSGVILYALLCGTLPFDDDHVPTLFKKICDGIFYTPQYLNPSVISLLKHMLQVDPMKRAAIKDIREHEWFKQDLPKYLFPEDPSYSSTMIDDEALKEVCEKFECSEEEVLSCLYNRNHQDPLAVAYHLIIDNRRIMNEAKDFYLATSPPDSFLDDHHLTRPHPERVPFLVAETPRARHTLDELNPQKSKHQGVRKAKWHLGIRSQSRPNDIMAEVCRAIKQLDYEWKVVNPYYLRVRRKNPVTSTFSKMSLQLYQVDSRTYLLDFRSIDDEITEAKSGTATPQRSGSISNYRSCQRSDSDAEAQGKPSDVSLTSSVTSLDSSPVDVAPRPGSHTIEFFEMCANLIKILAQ
T1 sequence (Q9R078 2-270 partner limits assumed): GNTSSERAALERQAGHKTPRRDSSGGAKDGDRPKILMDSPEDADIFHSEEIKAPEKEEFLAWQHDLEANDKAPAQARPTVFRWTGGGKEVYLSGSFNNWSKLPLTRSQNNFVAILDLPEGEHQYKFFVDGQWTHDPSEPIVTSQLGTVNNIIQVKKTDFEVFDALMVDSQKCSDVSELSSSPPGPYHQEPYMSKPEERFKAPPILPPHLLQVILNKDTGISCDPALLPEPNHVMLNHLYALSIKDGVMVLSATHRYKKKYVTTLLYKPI
T1 sequence (O54950 whole entry partner): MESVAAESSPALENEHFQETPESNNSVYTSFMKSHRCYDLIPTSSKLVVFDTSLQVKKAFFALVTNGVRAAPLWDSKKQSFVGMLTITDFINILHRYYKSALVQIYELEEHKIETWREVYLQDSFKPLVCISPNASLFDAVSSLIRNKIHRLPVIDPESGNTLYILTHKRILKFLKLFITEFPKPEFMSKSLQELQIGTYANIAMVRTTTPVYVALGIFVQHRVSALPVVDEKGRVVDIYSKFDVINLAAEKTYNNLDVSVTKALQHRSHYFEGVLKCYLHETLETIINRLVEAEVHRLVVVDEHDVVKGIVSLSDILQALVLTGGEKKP

For `NC(=O)c1ncn([C@@H]2O[C@H](CO)[C@@H](O)[C@H]2O)c1N` [AICA riboside, 5-aminoimidazole-4-carboxamide (AICA) riboside], the “activation of AMPK” value on AMPKα1 (2 mM AICA riboside) is given as “activated AMPK”. In addition, the LKB1 activity result on LKB1 is recorded as “do not activate LKB1 directly”.
As to `[H]/N=C(/N)N/C(=N/[H])NCCc1ccccc1` [phenformin], on AMPKα1 (increasing doses of phenformin), the “activation of AMPK” value is on record as “progressively activated AMPK” and the “phosphorylation of Thr172 of AMPK” value is “increased the phosphorylation of Thr172”. Besides, the LKB1 activity entry at LKB1 is listed as “did not stimulate LKB1 activity”.
